Laboratory results taken from patent publication US20230220047A1, “PEPTIDES FOR TREATMENT OF SEPSIS AND CANCER” (NORWEGIAN UNIVERSITY OF SCIENCE AND TECHNOLOGY (NTNU), priority 2020, published 2023).
“Also recorded” adds a separate entry of the source.

Key:
THP-1 cells = test: Viability of acute myeloid leukaemia cell line THP-1; format: cell-based, human; conditions: 5-30 μM, 48 h
Protocol: THP-1 cells were seeded in medium at 10,000 cells/well, as indicated by the dotted line. Cells were incubated for 48 hours in medium supplemented with water, C3A-Pen, P7-Pen, P7-A4-Pen or P7-N4-Pen. The peptides were included at concentrations ranging from 5-30 μM. At 48 hours cells were counted. […] The results with other peptides were less clear-cut. Results are based on 3 biological replicates, error bars show standard deviation of mean.
The peptides were tested against the SW480 cell line in the presence and absence of LPS.

STAT1 = test: Western blot of STAT1 phosphorylation in LPS-stimulated THP-1 cells; format: cell-based, human; conditions: LPS
Protocol: Protein pellets were dissolved by heating protein pellets for 10 min at 95° C. in buffer containing 4 M urea, 1 SDS (Sigma) and NuPAGE® LDS Sample Buffer (4×) (Thermo Fisher Scientific). Otherwise, lysates were made using 1× RIPA lysis buffer (150 mM NaCl, 50 mM TrisHCl (pH 7.5), 1% Triton X100, 5 mM EDTA, protease inhibitors, phosphatase inhibitors). For Western blot analysis we used pre-cast protein gels NuPAGE™ Novex™ and iBlot Transfer Stacks iBlot Gel Transfer Device (Thermo Fisher Scientific). Proteins were transferred to the membrane by dry-blotting using iBlot® 2 NC Regular/Mini Stacks (Life Technologies) in the iBlot 2 Dry Blotting System (Life Technologies). After secondary antibody incubation, membranes were washed and incubated with HRP substrate solution (SuperSignal™ West Femto Maximum Sensitivity Substrate (Thermo Fisher Scientific)). Images were taken using Odyssey® Fc (LI-CORE). Quantification graphs were generated by the analysis of signal intensities for protein bands (protein of interest and endogenous loading control—β-tubulin from the same membrane) using Odyssey software (LI-CORE). Data were normalised to the expression levels of β-tubulin and presented as a relative fold change to the control sample.

[1] = molecular target: T1, Mal interaction with MyD88 and IRAK1 (Homo sapiens, UniProt P58753); test: Anti-Mal immunoprecipitation from LPS-stimulated primary human macrophages; format: cell-based; conditions: 15 μM, 30 min pre-treatment, LPS 30 min or 1 h
T1 construct: endogenous in cells; host or cells: primary human macrophages, LPS-stimulated
Protocol: (A) Mal^Flag was overexpressed in HEK293T cells. […] Lysis buffer contained 300 mM NaCl and 1% Triton X100. (B) Mal^Flag and SLAMF1 wt or deletion mutants (Δ20 or Δ67 C-terminal amino acids) were co-expressed in HEK293T cells followed by immunoprecipitations with anti-Flag beads and Western blot analysis. (C) Primary human macrophages were pre-treated with 15 μM peptides for 30 min, stimulated with LPS for another 30 min or 1 h, lysed and used for IPs. Precipitations were performed using goat anti-Mal polyclonal antibodies covalently bound to magnetic beads, followed by Western blot analysis. Proteins in lysates were analysed for input control (A-C).

[2] = tested on: THP-1 WT cells and THP-1 TRAM^CHERRY; test: Confocal analysis of bacterial bioparticle uptake by THP-1 cells; format: cell-based, human; conditions: 15 μM, 30 min pre-incubation
Protocol: Cells were pre-incubated with Pen or P7-Pen peptides, followed by addition of Alexa Fluor 488-labeled bioparticles for the times indicated (15, 30 or 45 min). Fluorescent bacteria particles were counted by spot-detection in Bitplane Imaris imaging software and used to calculate the number of particles per cell. […] Pre-incubation with 3 μM cytochalasin D (CytoD, and inhibitor of actin polymerization) inhibited uptake of E. coli to a similar extent as P7-Pen.
THP-1 cells, THP-1^cherry cells or human PBMC were seeded in 24-well glass-bottom plates (MatTek Corporation), 125,000 cells/well. The THP-1 cells were differentiated into macrophages with 60 ng/ml PMA for 72 h and thereafter rested for 48 h, whereas the PBMC were used the day after isolation. The P7-penatratin peptide or control peptide was added to the cells 30 min before stimulation at 15 μM concentration. If used, 3 μM cytochalasin D (CytoD) was added simultaneously. […] A spot detection mode in the Bitplan Imaris software was used to define individual phagosomes and cells were counted manually. […] Fluorescence voxel intensity of TRAM^cherry at the phagosome is also presented. Statistical significance was calculated in GraphPad Prism by One-way ANOVA Kruskal-Wallis multiple comparison test. […]

human IL-1 receptor = test: HEK-Blue IL-1R cells stimulated with human recombinant IL-1β; format: cell-based
Excerpt: TLR2 and 4, and the endosomal TLRs 7-9, use the Myddosome signaling complex to activate transcription of pro-inflammatory cytokines, and endosomal TLRs also activate expression of type I IFNs via the same signaling complex. There are also several IL-1-like receptors including the IL-1 receptor (IL-1R) itself, which is characterized by extracellular immunoglobulin-like domains and intracellular Toll/Interleukin-1R (TIR) domains. These receptors also use the Myddosome complex to initiate downstream signaling. Therefore, we decided to test if signaling downstream of human IL-1R could be altered by the P7-Pen peptide. We used HEK-Blu IL-1R cells (Invivogen) that endogenously express the human IL-1 receptor. HEK-Blue IL-1R cells express a SEAP reporter gene under the control of the IFNβ minimal promoter fused to five NF-κB and five AP-1 binding sites. Binding of IL-1β to its receptor IL-1R on the surface of HEK-Blue IL-1R cells triggers a signaling cascade leading to the activation NF-κB and the subsequent production of SEAP.
In the assay, HEK-Blue IL-1R cells were pre-treated with control peptide or P7-Pen and stimulated with human recombinant II-1β (hII-1β) for up to 3 hr or for 24 hr. Stimulation of cells by TLR2 and 4 as well as by IL-1β would result in fast posttranslational modifications of IRAK1 in the Myddosome, and in phosphorylation of p38 MAPK. […]

T1 sequence (P58753 whole entry): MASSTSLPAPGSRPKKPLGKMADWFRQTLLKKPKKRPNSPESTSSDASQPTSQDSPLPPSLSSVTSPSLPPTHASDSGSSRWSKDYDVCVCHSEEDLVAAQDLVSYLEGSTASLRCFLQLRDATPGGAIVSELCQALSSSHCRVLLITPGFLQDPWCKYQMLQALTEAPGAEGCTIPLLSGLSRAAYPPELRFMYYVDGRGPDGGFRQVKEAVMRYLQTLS

Substance: Ac-ITVAASVTLTGRQIKIWFQNRRMKWKK-NH2 [Peptide P7-A4-Pen]
- effect on THP-1 cell number (THP-1 cells): anti-proliferative effect

Substance: Ac-ITVYASVTLTGRRRRRRRRRRR-NH2 [Peptide P7-Arg11]
- phosphorylation of STAT1 (STAT1; 10 μM): strongly inhibited
- phosphorylation of STAT1 (STAT1; 20 μM): fully abrogated

Substance: Ac-ITVYASVTLTGRQIKIWFQNRRMKWKK-NH2 [Peptide P7-Pen]
- Mal recruitment to the MyD88 complex and IRAK1 [1]: totally abrogated; also recorded: disruption
- uptake of S. aureus bioparticles ([2]; THP-1 TRAM^CHERRY): inhibited
- uptake of E. coli particles ([2]; THP-1 WT and THP-1 TRAM^CHERRY): inhibited
- IL-1β-induced IRAK1 posttranslational modifications or p-p38 MAPK levels (human IL-1 receptor; data not shown): no effect
- IL-1β-mediated secretion of SEAP (human IL-1 receptor; versus cells pre-treated with control peptide Pen (data not shown)): comparable
